According to PubChem BioAssay AID602210 (Sanford-Burnham Center for Chemical Genomics, 2012):
pIC50: −log10 of the molar value. Activity calls are given as the source filed them. The rule behind the calls is not given here.

Test: modulators of 2-deoxyglucose-induced H9c2 death, dose response, myocardial damage modulator project, cell-based, ATPlite luminescence, rat, set 2 (AID 602210)
Conditions: H9c2 rat cardiomyoblasts, 2-deoxyglucose-induced death, 2 h
In the case of Cc1nn(-c2ccccc2)nc1C(=O)Nc1cccc(C(=O)NC2CC2)c1, the IC50 was 18.6 µM (inactive).
In the case of Cc1ccc2[nH]c(=O)c(CN(Cc3ccco3)S(=O)(=O)c3c(C)ccc4nsnc34)cc2c1, the IC50 was 45.3 µM (inactive).
In the case of CCCN1C(=O)c2cc(C(=O)Nc3cccc(C(C)=O)c3)ccc2C1Nc1cccc(C(C)=O)c1 (stereo not drawn), the IC50 was 13.7 µM (inactive).
With CCOC(=O)c1cc(-c2nnc(-c3cc(OC)c(OC)c(OC)c3)o2)c(C)nc1C the pIC50 was 5.46.
For CC(=O)Nc1cc(-c2ccc(C(=O)N3CCOCC3)cc2)cn2c(-c3ccc(C(C)=O)cc3)cnc12, the IC50 was 27.1 µM (inactive).
For COc1ccc(-c2cc(NC=O)c3ncc(-c4ccc(C(C)=O)cc4)n3c2)cn1, the IC50 was 10.1 µM (inactive).
In the case of COc1ccc(CCCNC(=O)C2(C)Cc3c(-c4ccc(NC(C)=O)cc4)ccnc3O2)cc1 (stereo not drawn), the IC50 was 12.5 µM (inactive).
Compound COc1ccc(-c2cc(C(=O)NNC(=O)c3csc(N4CCOCC4)n3)c3ccccc3n2)cc1 has a pIC50 of 5.14.
For CC(=O)c1cccc(-c2cnc3c(NC=O)cc(-c4cccc(C(=O)N(C)C)c4)cn23)c1, the IC50 was 39.7 µM (inactive).
CCn1nc(C(=O)Nc2nc(-c3ccccn3)cs2)c2ccccc2c1=O showed a pIC50 of 5.18.
For O=C(N/N=C/c1ccccn1)c1cc(-c2cccc3ccccc23)n[nH]1, the IC50 was 20.7 µM (inactive).
In the case of CC(C)c1cc(N2CCN(C(=O)c3ccco3)CC2)n2c(nc3ccccc32)c1C#N, the IC50 was 44.7 µM (inactive).
With Cc1ccc(S(=O)(=O)N2CCN(C(=O)c3cc(=O)[nH]c4ccccc34)CC2)c(C)c1 the IC50 was 23 µM (inactive).
With CN(C)S(=O)(=O)n1cc(/C=C(\NC(=O)c2ccccc2F)C(=O)NCCN2CCOCC2)c2ccccc21 the IC50 was > 79 µM (inactive).
In the case of COc1cc(-c2cc(C(=O)Nc3ccccc3N3CCOCC3)c3ccccc3n2)cc(OC)c1OC, the IC50 was 11.2 µM (inactive).
COc1ccc(COc2cc(-c3cccc(OC)c3)nc3ccc(NC(=O)c4cccnc4)cc23)cc1 showed a pIC50 of 5.45.
Compound CCCNC(=O)c1ccc(N2CCC3(CC2)CC(c2ccccc2)=NO3)c(NC(=O)c2ccco2)c1 has a pIC50 of 5.06.
For CC(=O)Nc1cccc(-c2cc(NC(C)=O)c3ncc(-c4cccc(C(C)=O)c4)n3c2)c1, the IC50 was 13.1 µM (inactive).
For COc1ccccc1N1CCN(C(=O)c2ccc3nc(-c4ccco4)c(-c4ccco4)nc3c2)CC1, the IC50 was 14 µM (inactive).
In the case of CCC(CC)C(=O)Nc1cc(C)c2c(=O)oc3ccccc3c2n1, the IC50 was 36.4 µM (inactive).
In the case of O=C(Nc1cc(S(=O)(=O)N2CCOCC2)ccc1N1CCCCC1)c1cc(-c2ccccn2)nc2ccccc12, the IC50 was 14.6 µM (inactive).
With CCN(C[C@H]1N[C@@](Cc2ccccc2)(C(=O)OC)[C@H]2C(=O)N(C)C(=O)[C@@H]12)S(=O)(=O)c1ccc(OC)cc1 the IC50 was > 79 µM (inactive).
In the case of CC(OC(=O)c1cc(-c2cccnc2)nc2ccccc12)C(=O)Nc1ccc2ccccc2c1 (stereo not drawn), the IC50 was 14.3 µM (inactive).
In the case of O=C(NCC(=O)N(Cc1cccs1)C(C(=O)NC1CCCCC1)c1ccco1)c1ccco1 (stereo not drawn), the IC50 was 18.5 µM (inactive).
COC(=O)c1cc2c(C)c(C)c3ccccn3c-2c1C(=O)OC gave a pIC50 of 5.14.
For COc1ccc(NC(=O)c2cc(-c3ccccn3)nc3ccccc23)cc1S(=O)(=O)N(C)C, the pIC50 was 5.23.
In the case of COc1cc(NC(=O)c2cccc3c(-c4cnn(C)c4)coc23)cc(OC)c1OC, the IC50 was > 79 µM (inactive).
In the case of COc1cc(-c2cc3nc(NCCOc4ccccc4)ccn3n2)cc(OC)c1OC, the IC50 was 15.8 µM (inactive).
Compound Cc1ccc(C(C(=O)NCc2ccccc2)N(Cc2ccco2)C(=O)c2snc(C(N)=O)c2N)o1 (stereo not drawn) has a pIC50 of 5.07.
Compound CC(C)(C)OC(=O)N1CCC(NC(=O)c2nc[nH]c2C(=O)NCC(=O)OCc2ccccc2)CC1 has a pIC50 of 5.37.
With COc1ccc(C(C(=O)NC2CCCC2)N(C(=O)c2snc(C(N)=O)c2N)c2cccc(O)c2)cc1 (stereo not drawn) the IC50 was 13.3 µM (inactive).
CC(C)N1C(=O)S/C(=C/c2ccc3c(c2)n(C)c(=O)n3C)C1=O showed a pIC50 of 5.14.
In the case of O=C(c1cc(-c2cccnc2)nc2ccc(Br)cc12)N1CCN(c2ncccn2)CC1, the IC50 was 16.2 µM (inactive).
For Brc1cc2c(cc1/C=N/Nc1nc(N3CCCC3)nc(N3CCOCC3)n1)OCO2, the IC50 was 16 µM (inactive).
For O=C(CN(c1ccc2c(c1)OCCO2)S(=O)(=O)c1ccccc1)Nc1ccc2c(c1)OCO2, the IC50 was 14.7 µM (inactive).
For COc1ccc(-c2csc(NC(=O)CCCc3nc4ccccc4c(=O)[nH]3)n2)cc1OC, the IC50 was 23.3 µM (inactive).
In the case of O=C(C(=O)N(Cc1ccccc1)Cc1ccccc1)c1c(-c2ccccc2)[nH]c2ccccc12, the pIC50 was 5.73.
With CC(=NO)C1CCC2C3CCC4CC(=NO)CCC4(C)C3C(C)(O)CC12C (stereo not drawn) the IC50 was 22 µM (inactive).
With O=CNc1cc(-c2ccc(C(=O)NC3CC3)cc2)cn2c(-c3ccc(F)c(Cl)c3)cnc12 the IC50 was 17.2 µM (inactive).
In the case of COc1cc(OC)c(-c2nn3c(-c4ccco4)nnc3s2)cc1OC, the pIC50 was 5.04.
In the case of COc1ccc(-c2cc(C(=O)N(C)Cc3ccc(OC)c(OC)c3OC)c3ccccc3n2)cc1OC, the IC50 was 10.2 µM (inactive).
For Cc1nn(-c2ccccc2)c(N2CCCC2)c1/C=N/NC(=O)c1cc(-c2ccccn2)nc2ccccc12, the IC50 was 12.6 µM (inactive).
In the case of COC(=O)c1cc(OC)c(OC)cc1NC(=O)c1ccc(C)o1, the IC50 was 23.4 µM (inactive).
Work on COC(=O)c1cc2ccccn2c2c(C(=O)OC)c(C(=O)OC)cc1-2 yielded a pIC50 of 5.28.
In the case of COc1cc(-c2cnc3c(NC=O)cc(-c4cccnc4)cn23)cc(OC)c1OC, the IC50 was 36.2 µM (inactive).
In the case of COc1ccc(C(=O)Nc2cccc(NC(=O)c3ccc(OC)c(OC)c3)n2)cc1OC, the pIC50 was 5.26.
With Cc1ccc(C)c(NC(=O)C(Sc2nc3ccccc3c(=O)n2CC(C)C)c2ccccc2)c1 (stereo not drawn) the pIC50 was 6.47.
With COCCNC(=O)COC(=O)c1ccc(OCC(=O)Nc2ccccc2OC)c(OC)c1 the IC50 was 22 µM (inactive).
With Cn1c(=O)c2[nH]c(NN=Cc3ccc(Br)cc3)nc2n(C)c1=O the IC50 was 10.6 µM (inactive).
For CC12C=CC(=O)CC1CCC1C2CCC2(C)C(O)C(O)CC12 (stereo not drawn), the IC50 was 21 µM (inactive).
CC(=O)c1ccc(-c2cnc3c(NC=O)cc(-c4ccc(C(=O)NC5CC5)cc4)cn23)cc1 showed a pIC50 of 5.18.
For COc1cccc(CN2CCN(C(=O)c3cc(-c4cccnc4)nc4ccc(C)cc34)CC2)c1, the IC50 was 48.8 µM (inactive).
For COc1ccc(OC)c(NC(=O)c2sc3ncnc(N4CCN(c5ccccn5)CC4)c3c2C)c1, the IC50 was 12.1 µM (inactive).
In the case of COC(=O)c1ccccc1NC(=O)c1nc2nc(C)cc(C)n2n1, the IC50 was 67.2 µM (inactive).
For CCCCCCn1c(C)nc2c(c1=O)c1nc3ccccc3nc1n2/N=C/c1ccco1, the IC50 was 11.2 µM (inactive).
For COc1ccc(-c2cc(-c3nnc(COC(=O)c4ccncc4)o3)c3ccccc3n2)cc1OC, the IC50 was 18.1 µM (inactive).
In the case of O=C(N/N=C/c1ccccn1)c1[nH]c2ccc([N+](=O)[O-])cc2c1-c1ccccc1, the IC50 was > 79 µM (inactive).
With CN(CC1COc2ccccc2O1)c1nc(-c2cccnc2)nc2ccccc12 (stereo not drawn) the IC50 was 18.9 µM (inactive).
With COc1ccc(-c2cc(C(F)(F)F)n3nc(C(=O)N4CCN(C(=O)c5ccco5)CC4)cc3n2)cc1 the pIC50 was 5.42.
For NC(=O)c1nsc(C(=O)N(CCc2ccccc2)C(C(=O)NC2CCCC2)c2ccco2)c1N (stereo not drawn), the IC50 was 25.8 µM (inactive).
With COc1ccccc1OCC(=O)Nc1cccc(-c2nnc(-c3ccco3)o2)c1 the IC50 was > 79 µM (inactive).
For Cc1ccc(NC(=O)c2nc[nH]c2C(=O)NCCCCCCNC(=O)c2[nH]cnc2C(=O)Nc2ccc(C)cc2)cc1, the pIC50 was 6.62.
For COc1cc(/C=N/NC(=O)c2cccnc2)ccc1OS(=O)(=O)c1cc(C)ccc1C, the IC50 was 18.5 µM (inactive).
